Results reported in patent US20080227854A1, “Compound 3-(1, 1-Dimethyl-Allyl)-6-Hydroxy-Chromen-2-One and its Pharmaceutically Acceptable Salts Thereof” (COUNCIL OF SCIENTIFIC & INDUSTRIAL RESEARCH, priority 2007, published 2008).

How the values were obtained:
[1] = test system: inos gene; test: RT-PCR analysis for inos gene expression; format: cell-based, murine
Protocol: The murine macrophage cells were preincubated with the test extract, ethyl ether fraction and the compound for 2 hours (as mentioned above), washed and then challenged with LPS for 4 hours. After the incubation period the cells were washed with phosphate buffered saline (PBS), scraped and then pelleted by centrifugation. The total RNA from the pelleted cells was isolated using EZ-RNA isolation kit (Biological industries) using vendor recommended protocol. Then, cDNA was prepared from the total RNA using single strand cDNA synthesis kit (Clontech, USA) and the expression of inos gene was estimated using gene specific primers for inos gene.
The murine macrophage cells (J774) were challenged with LPS at a concentration of 1 μg/ml with and without the four test fractions obtained in Example III for 4 hours at 37° C. in the humidified incubator with 5% CO2. The cells were harvested and were used to isolate the total RNA using (RNA isolation kit, Qiagen). The RNA was quantified spectrophotometrically and 2 μg of total RNA from each sample was used for cDNA synthesis (cDNA synthesis kit, Clontech). Gene specific PCR for the inducible nitric oxide synthase (inos) and glyceraldehyde-3-phosphatedehyrogenase (G3PDH) as house keeping gene was performed. Primer sequences were designed from cDNA sequences of the specific gene (www:ncbi.nlm.nih.gov/locuslink) using DNASTAR software. […]

[2] = test system: Balb/c mice; test: LPS induced endotoxemia in Balb/c mice, total nitrite in plasma; format: in vivo
Protocol: The HPLC purified lead compound was suspended in phosphate buffered saline (PBS) at a concentration of 20 mg/ml for in vivo experiment. Balb/c mice, 6 to 8 week of age, weighing 23-25 g, were housed in micro-barrier cages on sterile bedding and fed ad libitum water and food. The animals were divided into three groups containing 6 mice in each group. Four milligrams (160 mg/kg body weight) of the isolated lead compound was administered intra-peritoneally (i.p.) 2 hours prior to LPS challenge. After 2 hours 150 μg LPS was injected i.p., and the mice were kept for 8 hours. In negative control mice, PBS was injected whereas, only LPS injected mice were used as positive control. After 8 hours of LPS injection, the blood was collected in ACD buffer from each mouse by retro-orbital puncture. The blood samples were immediately centrifuged and the plasma samples were collected and stored at −20° C. till nitrite assay. The plasma samples were then diluted 1:1 using 1× reaction buffer (total nitrite estimation kit, R & D systems, USA) and protein from the plasma was removed using 10 kDa centricon (Centricon, USA). Then protein free plasma samples were used for total nitrite estimation (NO^2−+NO^3−) using the same kit.
The Balb/c mice were used to validate the in vivo effect of the active compound on endotoxin induced inflammation by LPS. Balb/c mice, 6 to 8 week of age, weighing 23-25 g, were housed in micro-barrier cages on sterile bedding and fed ad libitum water and food. The animals were divided into three groups containing 6 mice in each group. Four milligrams (160 mg/kg body weight) of the active compound was preinjected intra-peritonially (i.p.) into the mice for two hours and then LPS (150 μg) was injected i.p. and left for eight hours. […] The plasma from the blood samples were collected by centrifuging at […] for 10 minutes and stored at −80° C. till nitric oxide was analyzed using Griess nitrite assay. The total nitrite in the plasma samples were detected using nitric oxide (NO^2−/NO^3−) assay kit (R & D systems, USA). […]

[3] = test system: nitric oxide production in murine macrophage cells (J774); test: Nitric oxide assay using Griess nitrite assay in LPS-challenged macrophages; format: cell-based
Protocol: Murine macrophage cell line (J-774) was used to check the anti-inflammatory effects of the extract, sub-fractions and the isolated active compounds. The macrophages are cultured in Dulbeccos Modified Eagles Medium (DMEM) supplemented with antibiotic and antimycotic solution and 10% fetal calf serum at 37° C. in a CO2 incubator (5%). The cell viability was measured using the Trypan blue exclusion method. For inducing the inflammatory conditions the cell were stimulated with LPS (1 μg/ml) and the effect of the compounds on the inflammatory condition was assessed by measuring the inflammatory mediator, nitric oxide and the respective inos gene expression by the murine macrophages.
The murine macrophage cells release nitric oxide along with other pro-inflammatory molecules, when stimulated with LPS. The cells were preincubated with the crude extract (300 and 500 μg/ml), ethyl ether fraction (50, 100, 150 μg/ml), the isolated active compound (5, 10, 20 μg/ml) and rutin (20, 40, 80 μM) for 2 hours and then challenged with LPS (1 μg/ml) for 16 hours. After 16 hours the cell supernatant was used to measure the nitric oxide production as nitrite using Griess nitrite assay (Lee et al., 2003, Life Science 73, 1401-1412). Equal amount of cell supernatant was incubated with Griess reagent for 10 minutes at room temperature and the magenta color developed was measured using spectrophotometer.
Each of the four fractions obtained in Example III were then used in different concentrations (50 μg/ml, 100 µg/ml and 150 μg/ml) for their effect on nitric oxide inhibition in vitro. Murine macrophages (J774) were maintained in DMEM medium, 37° C. in CO2 incubator (5% CO2). The cells were harvested and challenged with LPS (Sigma) at a concentration of 1 μg/ml with and without the four test fractions obtained in Example III for 16 hours at 37° C. in the humidified incubator with 5% CO2. After 16 hours the cell free supernatant was collected and the nitric oxide production was measured as described by Lee et al. Briefly 100 μl of supernatant samples were incubated for 10 min at room temperature with an equal volume of Griess reagent (0.1% naphthalene diamine dihydrochloride, 1% sulfanilamide in 5% H2SO4) in microtitre plate. The absorbance at 550 nm was measured. Sodium nitrite was used as the standard.

[4] = test system: murine macrophage cells (J774); test: Cytotoxicity assay using MTT; format: cell-based; details: for Cell viability (%): J774, MTT
Protocol: The murine macrophage cells were plated in cell culture plates and then treated with or without the crude extract/ethyl ether fraction/purified compound. The cells were then washed and challenged with LPS (1 μg/ml) for 16 hours. The MTT (5 mg/ml in PBS) was then added and the cells were further incubated for 4 hours at 37° C. in CO2 incubator. MTT solubilization buffer was then added and absorbance at 590 nm was determined.

## C=CC(C)(C)c1cc2cc(O)ccc2oc1=O [Rg-001, 3-(1,1-dimethyl-allyl)-6-hydroxy-chromen-2-one]
[1]
  inhibition of inos gene: 70%
[1]; J774, LPS challenge
  effect on inos gene expression: inhibit the gene expression significantly
[2]; 160 mg/kg body weight i.p. 2 hours prior to LPS (150 μg), blood after 8 hours
  inhibition of total nitrite in the plasma samples: > 75%
[2]; 160 mg/kg i.p., 8 hours after LPS, compared to the LPS challenged mice
  behavioral condition of treated mice: normal behavioral condition
[2]; effective dose of 40 mg/kg to 160 mg/kg body weight
  in-vivo inflammation (NO inhibition): 60% to 80
[3]; 5 μg (21.74 μM), J774, LPS 1 μg/ml 16 h, 21.74 µM
  Nitric oxide inhibition (%): 25.4%
[3]; 20 μg (87 μM), J774, LPS 1 μg/ml 16 h, 87 µM
  Nitric oxide inhibition (%): 63.5%
[3]; 5, 10 and 20 μg/ml, J774, LPS
  inhibition of nitric oxide production: significant inhibition
[3]; Mus musculus, J774, 16 h, 5 μg (21.74 μM), J774, LPS 1 μg/ml 16 h
  inhibition at 21.74 µM: 25%
[3]; Mus musculus, J774, 16 h, 10 μg (43.5 μM), J774, LPS 1 μg/ml 16 h
  inhibition at 43.5 µM: 40%
[3]; Mus musculus, J774, 16 h, 20 μg (87 μM), J774, LPS 1 μg/ml 16 h
  inhibition at 87 µM: 70%
[4]; 5 μg (21.74 μM)
  Cell viability (%): >85%
[4]; 10 μg (43.5 μM)
  Cell viability (%): >85%
[4]; 20 μg (87 μM)
  Cell viability (%): >85%
[4]; 20 μg (87 μM), listed as 3-(1,1-dimethyl-allyl)-6-hydroxy-chromen-2-one
  Cell viability (%): > 85%
[4]; all the doses ranging from 20 to 100 μg/ml
  cell viability: > 85%
[4]; highest concentration 50 μg i.e. 217.5 μM, MTT
  viability of macrophage cells: > 85%

## C[C@@H]1O[C@@H](OC[C@H]2O[C@@H](Oc3c(-c4ccc(O)c(O)c4)oc4cc(O)cc(O)c4c3=O)[C@H](O)[C@@H](O)[C@@H]2O)[C@H](O)[C@H](O)[C@H]1O [Rutin, reference compound]
[3]; Mus musculus, J774, 16 h, 12.2 μg (20 μM), J774, LPS 1 μg/ml 16 h
  inhibition at 20 µM: 11%
[3]; Mus musculus, J774, 16 h, 24.4 μg (40 μM), J774, LPS 1 μg/ml 16 h
  inhibition at 40 µM: 20.6%
[3]; Mus musculus, J774, 16 h, 48.8 μg (80 μM), J774, LPS 1 μg/ml 16 h
  inhibition at 80 µM: 27%
[4]; 12.2 μg (20 μM)
  Cell viability (%): >85%
[4]; 24.4 μg (40 μM)
  Cell viability (%): >85%
[4]; 48.8 μg (80 μM)
  Cell viability (%): ≦75%
